Measured values reported in patent publication US9403850B2, “Beta-lactamase inhibitors” (priority 2013, dated 2016).

Experiments:
VIM-2 = biological target: T1, VIM-2 (Escherichia coli, UniProt Q5U7L7); assay: β-Lactamase enzyme inhibition assay, VIM-2 (nitrocefin substrate); format: biochemical; conditions: nitrocefin substrate 100 μM, 15 min preincubation at 37° C.; read-out: IC50, Class B VIM-2
T1 construct: made in house; host or cells: E. coli BL21(DE3)
Procedure: For Vim-2 metallo β-lactamase, the procedure was identical with the following exceptions, first the protein was not pH adjusted to pH 5 with 50 mM sodium acetate, second, the chromatography step was changed to a 5 ml Q sepharose anion exchange column pre-equilibrated with 50 mM Hepes pH 7.5, and elution of the protein was achieved by a linear gradient of NaCl (0-600 mM). Finally, the VIM-2 purification required a second run (3rd step) on the Q sepharose anion exchange column to achieve acceptable purity (>90%).
An equal volume of diluted enzyme stock was added, and the plates were incubated at 37° C. for 15 min. Nitrocefin was used as substrate for p99 AmpC, VIM-2 and OXA-1 and dispensed into each well at a final concentration of 100 μM. Absorbance at 486 nm was immediately monitored for 10 min using a Biotek Powerwave XS2 microplate spectrophotometer using the GEN5 softweare package (Biotek Instruments, Winooski Vt.). In an analogous fashion, imipenem was used as substrate for Kpc-2 and Cefotaxime was used for SHV-5, while changes in absorbance upon hydrolysis of the β-lactam ring were monitored at 300 nm and 260 nm respectively in UV-transparent 96-well microtiter assay plates. Maximum rates of hydrolysis were compared to those in control wells (without inhibitors), and percentages of enzyme inhibition were calculated for each concentration of inhibitor. The concentration of inhibitor needed to reduce the initial rate of hydrolysis of substrate by 50% (IC50) was calculated as the residual activity of β-lactamase at 486 nm using GraFit version 7 kinetics software package (Erithacus Software, Surrey, UK).
Using the methodology described above, examples of the current invention were evaluated for their ability to inhibit β-lactamase enzymes from all four Ambler classifications (A through D). […] NT=Not tested.

[1] = test system: E. coli ESBL4 expressing CTX-M-15; assay: Broth microdilution MIC assay, partner ceftazidime;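 also: ceftazidime held fixed at 4 µg/mL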; format: cell-based; conditions: Escherichia coli, read-out: MIC of Exemplary Compounds in presence of fixed β-lactams, Fixed CAZ, E. coli ESBL4 CTX-M-15
[2] = test system: E. cloacae 144200 expressing Class C P99 AmpC; assay: Broth microdilution MIC assay, partner ceftazidime;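 also: ceftazidime held fixed at 4 µg/mL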; format: cell-based; conditions: Enterobacter cloacae, read-out: MIC of Exemplary Compounds in presence of fixed β-lactams, Fixed CAZ, E. cl. 144200 p99 AmpC
[3] = test system: K. pneumoniae 156319 expressing KPC-3; assay: Broth microdilution MIC assay, partner meropenem; format: cell-based; conditions: Klebsiella pneumoniae, read-out: MIC of Exemplary Compounds in presence of fixed β-lactams, Fixed Mero, K.P. 156319 KPC-3
[4] = test system: P. aeruginosa Ps296 expressing VIM-2; assay: Broth microdilution MIC assay, partner meropenem; format: cell-based; conditions: Pseudomonas aeruginosa, read-out: MIC of Exemplary Compounds in presence of fixed β-lactams, Fixed Mero, P. aerug. Ps296 VIM-2
[5] = test system: K. pneumoniae A-1797 expressing KPC-2 and VIM-4; assay: Broth microdilution MIC assay, partner meropenem; format: cell-based; conditions: Klebsiella pneumoniae, read-out: MIC of Exemplary Compounds in presence of fixed β-lactams, Fixed Mero, K.P. A-1797 KPC-2 VIM-4
[6] = test system: S. aureus MSSA-7 producing penicillinase PC-1; assay: Broth microdilution MIC assay, partner piperacillin; format: cell-based; conditions: Staphylococcus aureus, fixed piperacillin 4 μg/mL, read-out: MIC of Exemplary Compounds in presence of fixed β-lactams, Fixed Pip, S. aureus MSSA-7 PC-1

Compound: NC1=NCc2ccc(C(=O)N[C@H]3Cc4cccc(C(=O)O)c4OB3O)cc2CN1 [Example 17, (R)-3-(3-amino-4,5-dihydro-1H-benzo[e][1,3]diazepine-7-carboxamido)-2-hydroxy-3,4-dihydro-2H-benzo[e][1,2]oxaborinine-8-carboxylic acid]
- IC50 (VIM-2): < 0.1 µM
- MIC [1]: < 4 µg/mL
- MIC [2]: < 4 µg/mL
- MIC [3]: < 4 µg/mL
- MIC [4]: 8 to 32 µg/mL
- MIC [5]: < 4 µg/mL
- MIC [6]: < 4 µg/mL

Compound: CN(C)Cc1ccc(C(=O)N[C@H]2Cc3cccc(C(=O)O)c3OB2O)cc1N [Example 18, (R)-3-(3-amino-4-((dimethylamino)methyl)benzamido)-2-hydroxy-3,4-dihydro-2H-benzo[e][1,2]oxaborinine-8-carboxylic acid]
- IC50 (VIM-2): 0.1 to 1 µM
- MIC [1]: < 4 µg/mL
- MIC [2]: < 4 µg/mL
- MIC [3]: < 4 µg/mL
- MIC [4]: < 4 µg/mL
- MIC [5]: < 4 µg/mL
- MIC [6]: < 4 µg/mL

Compound: CNCc1ccc(C(=O)N[C@H]2Cc3cccc(C(=O)O)c3OB2O)cc1CNC [Example 19, (R)-3-(3,4-bis((methylamino)methyl)benzamido)-2-hydroxy-3,4-dihydro-2H-benzo[e][1,2]oxaborinine-8-carboxylic acid]
- IC50 (VIM-2): < 0.1 µM
- MIC [1]: < 4 µg/mL
- MIC [2]: < 4 µg/mL
- MIC [3]: < 4 µg/mL
- MIC [4]: < 4 µg/mL
- MIC [5]: < 4 µg/mL
- MIC [6]: < 4 µg/mL

Compound: NCc1ccc(CC(=O)N[C@H]2Cc3cccc(C(=O)O)c3OB2O)cc1CN [Example 20, (R)-3-(2-(3,4-bis(aminomethyl)phenyl)acetamido)-2-hydroxy-3,4-dihydro-2H-benzo[e][1,2]oxaborinine-8-carboxylic acid]
- IC50 (VIM-2): < 0.1 µM
- MIC [1]: < 4 µg/mL
- MIC [2]: < 4 µg/mL
- MIC [3]: < 4 µg/mL
- MIC [4]: < 4 µg/mL
- MIC [5]: < 4 µg/mL
- MIC [6]: < 4 µg/mL

Compound: CN(C)Cc1ccc(C(=O)N[C@H]2Cc3cccc(C(=O)O)c3OB2O)cc1NC(=O)[C@@H](N)CN [Example 21, (R)-3-(3-((S)-2,3-diaminopropanamido)-4-((dimethylamino)methyl)benzamido)-2-hydroxy-3,4-dihydro-2H-benzo[e][1,2]oxaborinine-8-carboxylic acid]
- IC50 (VIM-2): < 0.1 µM
- MIC [1]: < 4 µg/mL
- MIC [2]: < 4 µg/mL
- MIC [3]: 8 to 32 µg/mL
- MIC [4]: > 32 µg/mL
- MIC [5]: 8 to 32 µg/mL
- MIC [6]: 8 to 32 µg/mL

Compound: Cc1ccc(C(=O)N[C@H]2Cc3cccc(C(=O)O)c3OB2O)cc1NC(=O)[C@@H](N)CN [Example 22, (R)-3-(3-((S)-2,3-diaminopropanamido)-4-methylbenzamido)-2-hydroxy-3,4-dihydro-2H-benzo[e][1,2]oxaborinine-8-carboxylic acid]
- IC50 (VIM-2): 0.1 to 1 µM
- MIC [1]: < 4 µg/mL
- MIC [2]: < 4 µg/mL
- MIC [3]: < 4 µg/mL
- MIC [4]: > 32 µg/mL
- MIC [5]: 8 to 32 µg/mL
- MIC [6]: < 4 µg/mL

Compound: Cc1ccc(C(=O)N[C@H]2Cc3cccc(C(=O)O)c3OB2O)cc1N [Example 23, (R)-3-(3-amino-4-methylbenzamido)-2-hydroxy-3,4-dihydro-2H-benzo[e][1,2]oxaborinine-8-carboxylic acid]
- IC50 (VIM-2): 0.1 to 1 µM
- MIC [1]: < 4 µg/mL
- MIC [2]: < 4 µg/mL
- MIC [3]: < 4 µg/mL
- MIC [4]: 8 to 32 µg/mL
- MIC [5]: 8 to 32 µg/mL
- MIC [6]: < 4 µg/mL

Compound: O=C(N[C@H]1Cc2cccc(C(=O)O)c2OB1O)c1ccc(-c2ccccn2)cc1 [Example 24, (R)-2-hydroxy-3-(4-(pyridin-2-yl)benzamido)-3,4-dihydro-2H-benzo[e][1,2]oxaborinine-8-carboxylic acid]
- IC50 (VIM-2): 0.1 to 1 µM
- MIC [1]: < 4 µg/mL
- MIC [2]: < 4 µg/mL
- MIC [3]: 8 to 32 µg/mL
- MIC [4]: 8 to 32 µg/mL
- MIC [5]: 8 to 32 µg/mL
- MIC [6]: < 4 µg/mL

Compound: N=C(N)NCc1ccc(C(=O)N[C@H]2Cc3cccc(C(=O)O)c3OB2O)cc1CNC(=N)N [Example 25, (R)-3-(3,4-bis(guanidinomethyl)benzamido)-2-hydroxy-3,4-dihydro-2H-benzo[e][1,2]oxaborinine-8-carboxylic acid]
- IC50 (VIM-2): < 0.1 µM
- MIC [1]: < 4 µg/mL
- MIC [2]: < 4 µg/mL
- MIC [3]: < 4 µg/mL
- MIC [4]: < 4 µg/mL
- MIC [5]: < 4 µg/mL
- MIC [6]: < 4 µg/mL

Compound: O=C(N[C@H]1Cc2cccc(C(=O)O)c2OB1O)c1ccc2[nH]ccc2c1 [Example 26, (R)-2-hydroxy-3-(1H-indole-5-carboxamido)-3,4-dihydro-2H-benzo[e][1,2]oxaborinine-8-carboxylic acid]
- IC50 (VIM-2): 0.1 to 1 µM
- MIC [1]: < 4 µg/mL
- MIC [2]: < 4 µg/mL
- MIC [3]: < 4 µg/mL
- MIC [4]: 8 to 32 µg/mL
- MIC [5]: 8 to 32 µg/mL
- MIC [6]: < 4 µg/mL

Compound: O=C(N[C@H]1Cc2cccc(C(=O)O)c2OB1O)c1ccc(-c2ccncc2)cc1 [Example 27, (R)-2-hydroxy-3-(4-(pyridin-4-yl)benzamido)-3,4-dihydro-2H-benzo[e][1,2]oxaborinine-8-carboxylic acid]
- IC50 (VIM-2): 1 to 10 µM
- MIC [1]: < 4 µg/mL
- MIC [2]: < 4 µg/mL
- MIC [3]: > 32 µg/mL
- MIC [4]: > 32 µg/mL
- MIC [5]: > 32 µg/mL
- MIC [6]: < 4 µg/mL

Compound: O=C(N[C@H]1Cc2cccc(C(=O)O)c2OB1O)c1ccc2ncccc2c1 [Example 28, (R)-2-hydroxy-3-(quinoline-6-carboxamido)-3,4-dihydro-2H-benzo[e][1,2]oxaborinine-8-carboxylic acid]
- IC50 (VIM-2): 1 to 10 µM
- MIC [1]: < 4 µg/mL
- MIC [2]: < 4 µg/mL
- MIC [3]: < 4 µg/mL
- MIC [4]: > 32 µg/mL
- MIC [5]: 8 to 32 µg/mL
- MIC [6]: < 4 µg/mL

Compound: O=C(N[C@H]1Cc2cccc(C(=O)O)c2OB1O)c1ccc2nccnc2c1 [Example 29, (R)-2-hydroxy-3-(quinoxaline-6-carboxamido)-3,4-dihydro-2H-benzo[e][1,2]oxaborinine-8-carboxylic acid]
- IC50 (VIM-2): 1 to 10 µM
- MIC [1]: < 4 µg/mL
- MIC [2]: < 4 µg/mL
- MIC [3]: < 4 µg/mL
- MIC [4]: > 32 µg/mL
- MIC [5]: > 32 µg/mL
- MIC [6]: < 4 µg/mL

Compound: O=C(N[C@H]1Cc2cccc(C(=O)O)c2OB1O)c1ccc2cc[nH]c2c1 [Example 30, (R)-2-hydroxy-3-(1H-indole-6-carboxamido)-3,4-dihydro-2H-benzo[e][1,2]oxaborinine-8-carboxylic acid]
- IC50 (VIM-2): 0.1 to 1 µM
- MIC [1]: < 4 µg/mL
- MIC [2]: < 4 µg/mL
- MIC [3]: < 4 µg/mL
- MIC [4]: < 4 µg/mL
- MIC [5]: 8 to 32 µg/mL
- MIC [6]: < 4 µg/mL

Compound: O=C(O)c1cccc2c1OB(O)[C@@H](NC(=O)c1cccc3cc[nH]c13)C2 [Example 31, (R)-2-hydroxy-3-(1H-indole-7-carboxamido)-3,4-dihydro-2H-benzo[e][1,2]oxaborinine-8-carboxylic acid]
- IC50 (VIM-2): 1 to 10 µM
- MIC [1]: < 4 µg/mL
- MIC [2]: < 4 µg/mL
- MIC [3]: < 4 µg/mL
- MIC [4]: 8 to 32 µg/mL
- MIC [5]: > 32 µg/mL
- MIC [6]: < 4 µg/mL

Compound: O=C(O)c1cccc2c1OB(O)[C@@H](NC(=O)c1cccc3[nH]ccc13)C2 [Example 32, (R)-2-Hydroxy-3-[(1H-indole-4-carbonyl)-amino]-3,4-dihydro-2H-benzo[e][1,2]oxaborinine-8-carboxylic acid]
- IC50 (VIM-2): 0.1 to 1 µM
- MIC [1]: < 4 µg/mL
- MIC [2]: < 4 µg/mL
- MIC [3]: < 4 µg/mL
- MIC [4]: < 4 µg/mL
- MIC [5]: > 32 µg/mL
- MIC [6]: < 4 µg/mL
